Experimental data taken from patent US11141452B2, “Bifunctional compounds for relief of pain comprising an opioid receptor agonist moiety and a NK1 receptor antagonist moiety and methods for treating pain” (THE ARIZONA BOARD OF REGENTS ON BEHALF OF THE UNIVERSITY OF …, priority 2014, dated 2021).
Values joined by “and” are separate entries in the source; they are usually repeats but may differ in a detail not shown here. Equal values may be shown once.

Experiments:
MOR [1] = assay: Radioligand binding assay at μ opioid receptor; settings: for Log[IC50±] (μ): log IC50 ± error
Procedure: (§1) Binding affinities of these ligands were measured on radioligand binding assays. […] ([43]).

NK1R = molecular target: T1, NK1R (Cavia porcellus, UniProt P30547); assay: GPI/LMMP functional assay at NK1R (agonist and antagonist testing); assay type: cell-based, guinea pig; settings: for Kb: antagonist activity, read-out: GPI/LMMP (NK1R) Ke (nM) ± S.E.M.
T1 construct: The longitudinal muscle with myenteric plexus (LMMP) was carefully separated from the circular muscle; from tissue; host or cells: guinea pig ileum longitudinal muscle with myenteric plexus

MOR [2] = assay: Guinea pig isolated ileum (GPI) functional assay; assay type: cell-based; settings: agonist activity, electrically stimulated tissue; read-out: GPI (MOR) IC50
rNK1 = rNK1 (Rattus norvegicus, UniProt P14600); assay: Radioligand binding assay at rat NK1 receptor; settings: Ki^rNK1 (nM)
Procedure: as §1

DOR [3] = molecular target: T2, DOR (Mus musculus, UniProt P32300); assay: Mouse isolated vas deferens (MVD) functional assay; assay type: cell-based; settings: for IC50: MVD (DOR) IC50 (nM), agonist activity, electrically stimulated tissue
T2 construct: Male ICR mice under CO2 anesthesia were sacrificed by cervical dislocation and the vasa differentia removed; from tissue; host or cells: mouse vas deferens (ICR mice)

hNK1 = molecular target: T3, hNK1 (Homo sapiens, UniProt P25103); assay: hNK1/CHO cell membrane radioligand binding assay ([3H]SP)
T3 construct: expressed in transfected cells; host or cells: CHO

[4] = tested on: mice (acute thermal pain, tail flick); assay: Tail flick latency, 52° C. water bath, after intrathecal injection; assay type: in vivo, mouse
Procedure: Tail flick latencies were re-assessed at up to 8 time points after administration. […] Mice with baseline TFLs<3 s or >9 s were excluded from the study.
For both studies, maximal percent efficacy was calculated and expressed as: % Antinociception=100*(test latency after drug treatment−baseline latency)/(cutoff−baseline latency) Statistics: Between group data were analyzed by non-parametric two-way analysis of variance (ANOVA; post hoc. Neuman-Kuels) in FlashCalc (Dr. Michael H. Ossipov, University of Arizona, Tucson, Ariz., USA). Within group data were analyzed by non-parametric one-way analysis of variance (ANOVA; post hoc: Bonferroni) in FlashCalc (Dr. Michael H. Ossipov, University of Arizona, Tucson, Ariz., USA). Differences were considered to be significant if P≤0.05.

in vitro = settings: rat, plasma
DOR [5] = molecular target: DOR (Homo sapiens, UniProt P41143); assay: Radioligand binding assay at δ opioid receptor
Procedure: as §1

[6] = tested on: rats (acute thermal pain, paw withdrawal reflex)

T1 sequence (P30547 whole entry): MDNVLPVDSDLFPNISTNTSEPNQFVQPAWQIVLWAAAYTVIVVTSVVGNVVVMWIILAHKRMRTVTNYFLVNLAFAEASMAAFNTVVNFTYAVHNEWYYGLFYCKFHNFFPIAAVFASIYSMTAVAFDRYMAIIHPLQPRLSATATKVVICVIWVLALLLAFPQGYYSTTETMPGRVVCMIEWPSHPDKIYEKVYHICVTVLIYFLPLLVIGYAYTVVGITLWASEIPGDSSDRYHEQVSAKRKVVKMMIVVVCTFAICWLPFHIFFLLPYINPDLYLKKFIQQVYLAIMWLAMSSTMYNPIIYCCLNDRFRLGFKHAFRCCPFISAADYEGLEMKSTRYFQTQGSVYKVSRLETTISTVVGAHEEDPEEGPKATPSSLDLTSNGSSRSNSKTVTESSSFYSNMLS
T2 sequence (P32300 whole entry): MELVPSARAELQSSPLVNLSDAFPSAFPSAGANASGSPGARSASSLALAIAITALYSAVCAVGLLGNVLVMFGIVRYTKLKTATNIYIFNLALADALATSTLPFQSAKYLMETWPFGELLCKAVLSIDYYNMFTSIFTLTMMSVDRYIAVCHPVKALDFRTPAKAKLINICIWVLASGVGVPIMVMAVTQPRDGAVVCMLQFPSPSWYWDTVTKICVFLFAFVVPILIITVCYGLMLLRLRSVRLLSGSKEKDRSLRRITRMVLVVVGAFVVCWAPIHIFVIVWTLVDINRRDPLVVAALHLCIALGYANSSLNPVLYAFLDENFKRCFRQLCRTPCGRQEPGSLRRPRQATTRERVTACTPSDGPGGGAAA
T3 sequence (P25103 whole entry): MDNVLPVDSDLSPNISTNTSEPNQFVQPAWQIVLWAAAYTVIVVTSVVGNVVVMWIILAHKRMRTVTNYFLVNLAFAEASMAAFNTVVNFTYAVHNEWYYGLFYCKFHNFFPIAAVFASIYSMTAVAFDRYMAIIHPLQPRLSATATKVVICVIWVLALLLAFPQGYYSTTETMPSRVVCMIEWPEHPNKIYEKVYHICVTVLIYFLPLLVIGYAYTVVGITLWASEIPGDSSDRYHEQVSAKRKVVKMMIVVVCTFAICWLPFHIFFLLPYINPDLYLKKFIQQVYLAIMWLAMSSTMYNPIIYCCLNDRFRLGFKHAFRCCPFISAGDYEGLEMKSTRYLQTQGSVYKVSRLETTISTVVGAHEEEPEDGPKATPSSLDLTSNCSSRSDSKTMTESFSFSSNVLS
DOR (Homo sapiens, UniProt P41143), sequence (P41143 whole entry): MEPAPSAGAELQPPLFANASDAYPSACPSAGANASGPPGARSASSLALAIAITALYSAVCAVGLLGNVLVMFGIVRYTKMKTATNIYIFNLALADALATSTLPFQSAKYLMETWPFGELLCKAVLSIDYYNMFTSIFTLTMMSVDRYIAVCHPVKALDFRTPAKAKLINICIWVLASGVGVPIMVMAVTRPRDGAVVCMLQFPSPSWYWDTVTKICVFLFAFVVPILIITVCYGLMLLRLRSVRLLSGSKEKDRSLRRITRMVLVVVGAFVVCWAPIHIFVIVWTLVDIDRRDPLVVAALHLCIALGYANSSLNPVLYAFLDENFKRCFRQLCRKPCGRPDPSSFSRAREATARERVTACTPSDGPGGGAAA
rNK1, sequence (P14600 whole entry): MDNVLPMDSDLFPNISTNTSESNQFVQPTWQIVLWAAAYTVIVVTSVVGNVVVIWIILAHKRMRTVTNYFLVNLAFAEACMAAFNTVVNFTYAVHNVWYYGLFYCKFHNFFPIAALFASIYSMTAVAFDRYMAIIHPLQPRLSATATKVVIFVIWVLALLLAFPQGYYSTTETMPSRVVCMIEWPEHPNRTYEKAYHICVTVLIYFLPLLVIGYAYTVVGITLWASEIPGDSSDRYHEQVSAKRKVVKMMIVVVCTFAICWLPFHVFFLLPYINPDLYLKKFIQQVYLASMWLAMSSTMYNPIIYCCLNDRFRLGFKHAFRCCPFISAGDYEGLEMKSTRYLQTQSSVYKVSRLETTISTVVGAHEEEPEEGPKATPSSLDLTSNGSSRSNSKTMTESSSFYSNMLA

Row | SMILES | Ki (MOR [1]) | Log[IC50±] (μ) (MOR [1]) | Ki^μ/Ki^δ (MOR [1]; ratio of binding affinities MOR/DOR) | GPI/LMMP (NK1R) Agonist (NK1R; agonist activity at the concentration in the cell) | Kb (NK1R) | IC50 (MOR [2]) | Ki (rNK1) | higher agonist activity at DOR compared to MOR (functional assays) (DOR [3]) | IC50 (DOR [3]) | Ki (hNK1; Ki^hNK1 (nM), hNK1/CHO membranes, [3H]SP) | Ki^hNK1/Ki^rNK1 (hNK1; ratio human/rat NK1) | maximal level of antinociception (% antinociception) ([4]; 0.1 μg i.t.) | tail flick latencies (TFLs) ([4]; 0.1 μg in 5 μl, i.t., 60 min after injection) | half-life (in vitro) | IC50 (DOR [5]) | maximal level of antinociception ([6]; 0.1 μg i.t.) | motor skills ([6]; 10 μg in 5 μl) | Paw withdrawal latencies (PWLs) ([6]; spinal 0.1 μg in 5 μL, 60 min after the injection)
1 | Cc1cc(O)cc(C)c1C[C@H](N)C(=O)N[C@H](C)C(=O)NCC(=O)N[C@@H](Cc1ccc(F)cc1)C(=O)N1CCC[C@H]1C(=O)N[C@@H](CC(C)C)C(=O)N[C@@H](Cc1c[nH]c2ccccc12)C(=O)NCc1cc(C(F)(F)F)cc(C(F)(F)F)c1 [AKG127, H-Dmt-D-Ala-Gly-Phe(4-F)-Pro-Leu-Trp-NH-Bn(3′,5′-(CF3)2)] | 1 nM | −8.72 ± 0.08 | 1/1 | None at 30 nM | 5.3 nM | 42 nM and 41.6 nM | 29.4 ± 1.5 nM | 21 times | 1.9 nM and 1.96 nM | 1 nM | 1/33 | approximately 70% | significantly higher than vehicle-treated mice and baseline values | > 24 h |  |  |  | 
2 | Cc1cc(O)cc(C)c1C[C@H](N)C(=O)N[C@H](C)C(=O)NCC(=O)N(C)[C@@H](Cc1ccccc1)C(=O)N1CCC[C@H]1C(=O)N[C@@H](CC(C)C)C(=O)N[C@@H](Cc1c[nH]c2ccccc12)C(=O)NCc1cc(C(F)(F)F)cc(C(F)(F)F)c1 [AKG115, H-Dmt-D-Ala-Gly-NMePhe-Pro-Leu-Trp-NH-Bn(3′,5′-(CF3)2)] | 1 nM | −8.78 ± 0.05 |  |  | 9.7 nM | 21 nM and 20.6 nM |  |  | 30.7 ± 7.5 nM |  |  |  |  | > 24 h | 12 nM | minimal | motor skills were impaired | not significantly higher than vehicle-treated rats and baseline values
